Earlier results on 2 compounds are cited in patent publication US20080139514A1, “DIPHOSPHONIC ACID PHARMACEUTICAL COMPOSITIONS” (priority 2006, published 2008).

Where two headings read alike, the source gives them in different places.

For data set [1] the following is noted: stored at room temperature.

`CCCCCN(C)CCC(O)(P(=O)(O)O)P(=O)(O)O` [Ibandronic acid, 3-(N-methyl-N-pentyl) amino-1-hydroxypropane-1,1-diphosphonic acid]: the Solubility in water entry was “freely soluble”. Besides, the “Solubility in organic solvents” value (organic solvents) is reported as “practically insoluble”.

Regarding `CCCCCN(C)CCC(O)(P(=O)(O)O)P(=O)(O)O` [ibandronate sodium, ibandronate monosodium monohydrate], the Solubility in water result (monosodium monohydrate) is on record as “poor”. Further, the Stability on storage result in data set [1] is listed as “quite stable”.
